# Legend:
# [1] = test system: SD rats with bleomycin-induced pulmonary fibrosis; experiment: Bleomycin-induced pulmonary fibrosis animal model; type: in vivo; conditions: bleomycin 5 mg/kg intratracheal, polypeptides 7.5 mg/kg subcutaneous twice a day, positive drug 25 mg/kg intragastric once a day, 14 days
# Method: SD rats were anesthetized by intraperitoneal injection of 1 mL/100 g 4% chloral hydrate. After anesthesia, the rats were fixed and their necks were disinfected by using cotton with 75% alcohol. The skin of the rat neck was longitudinally cut with scissors, and the fascia and muscle were longitudinally bluntly torn with tweezers to expose the trachea. A syringe was inserted into the trachea to inject 5 mg/kg bleomycin, while a blank group was injected with an equal amount of normal saline. Then a rat plate was quickly erected and rotated, the rats' breathing was observed, the neck wound was sterilized after rotation and was sewn, and an amoxicillin anti-inflammatory drug was sprinkled on the suture. After the operation, the rats were put back into a dry and clean cage for resting, waiting was performed for awakening. The rats were awakened after about 1-2 hours, and then fed normally. On the 7th day after modeling, modeling group animals randomly fell into a model group, a Nintedanib positive drug group, polypeptide I, II, III and IV dosage groups, and a normal control group, and the groups were administered separately for an administration cycle of 14 days. Living situations of rats were observed every day and their weights were weighed.
# [2] = test system: streptococcus pneumoniae; experiment: Mouse pneumonia model, bacterial pneumonia; type: in vivo, BALB/C mice; conditions: average values±standard deviation
# Text: (§1) A mouse pneumonia model was successfully established by using a nasal drip method. BALB/C mice with a body weight of 18-24 g were selected, and then anesthetized with ether on day 0, day 1 and day 2, respectively, prepared streptococcus pneumoniae bacteria solution, adenovirus concentrated solution, mycoplasma pneumoniae, chlamydia pneumoniae, protozoa and pneumonia fungi were slowly dropped into the nasal cavity of the mice, so that the bacteria solutions entered the trachea and bronchi, and the bacteria solutions were prevented from flowing into the esophagus during the operation to avoid inactivation of the bacteria solutions, so that the mouse pneumonia model was established. After the model was successfully established, the polypeptide according to the present disclosure was administered, as shown in FIG. 7 and Table 9. […] The experimental results are represented on the basis of average values±standard deviation.
# [3] = test system: adenovirus; experiment: Mouse pneumonia model, viral pneumonia; type: in vivo, BALB/C mice; conditions: average values±standard deviation
# Text: as §1
# [4] = test system: mycoplasma pneumoniae; experiment: Mouse pneumonia model, mycoplasma pneumonia; type: in vivo, BALB/C mice; conditions: average values±standard deviation
# Text: as §1
# [5] = test system: chlamydia pneumoniae; experiment: Mouse pneumonia model, chlamydia pneumonia; type: in vivo, BALB/C mice; conditions: average values±standard deviation
# Text: as §1
# [6] = test system: protozoa; experiment: Mouse pneumonia model, protozoal pneumonia; type: in vivo, BALB/C mice; conditions: average values±standard deviation
# Text: as §1
# [7] = test system: pneumonia fungi; experiment: Mouse pneumonia model, fungal pneumonia; type: in vivo, BALB/C mice; conditions: average values±standard deviation
# Text: as §1
# [8] = test system: pulmonary infections; experiment: Mouse pneumonia model, pneumonia caused by pulmonary infections; type: in vivo, BALB/C mice; conditions: average values±standard deviation
# Text: as §1
Molecule,Survival rate (%) [1],"Inhibitory effect on pulmonary infections, Bacterial pneumonia [2]","Inhibitory effect on pulmonary infections, Viral pneumonia [3]","Inhibitory effect on pulmonary infections, Mycoplasma pneumonia [4]","Inhibitory effect on pulmonary infections, Chlamydia pneumonia [5]","Inhibitory effect on pulmonary infections, Protozoal pneumonia [6]","Inhibitory effect on pulmonary infections, Fungal pneumonia [7]","Inhibitory effect on pulmonary infections, Pneumonia caused by pulmonary infections [8]"
"COC(=O)c1ccc2c(c1)NC(=O)/C2=C(\Nc1ccc(N(C)C(=O)CN2CCN(C)CC2)cc1)c1ccccc1 [Positive drug, Nintedanib, reference compound]",85.7%,,,,,,,
Penicillin [reference compound],,35.05 ± 5.75,38.07 ± 2.27,41.77 ± 5.73,30.75 ± 3.31,39.04 ± 3.71,38.61 ± 3.82,35.67 ± 4.55
